Measured values taken from article PMC5478686, “Direct Anandamide Activation of TRPV1 Produces Divergent Calcium and Current Responses” (Frontiers in Molecular Neuroscience, 2017).

Experiments:
TRPV1 [1] = molecular target: T1, TRPV1 (Rattus norvegicus, UniProt O35433); assay: Ratiometric Fura-2 calcium imaging in dissociated nodose ganglion (vagal afferent) neurons; type: cell-based; conditions: for effect on AEA-induced increase in cytosolic calcium: AEA 10 μM; for effect on CAP-induced increase in cytosolic calcium: CAP 100 nM
T1 construct: endogenous in cells; host or cells: dissociated nodose ganglion neurons from male Sprague Dawley rats (primary culture, used within 24 h)
Procedure: (§1) Nodose ganglia were isolated bilaterally from rats and mice under a deep plane of anesthesia (Ketamine, 25 mg/100 g; with Xylazine, 2.5 mg/100 g) using aseptic surgical conditions previously reported (Lancaster and Weinreich, [2001]; Simasko et al., [2002]). Following a midline incision in the neck, the musculature was retracted and blunt dissection techniques were used to dissociate the vagal trunk from the common carotid artery. High-magnification optics (10–100× dissecting scope; Leica Microsystems, Buffalo Grove, IL, USA) were utilized to visualize the nodose ganglia and facilitate complete removal. Once isolated, nodose ganglia were desheathed and digested in Ca^2+/Mg^2+ free Hank’s Balanced Salt Solution containing 1 mg/mL of both Dispase II (Hoffmann La Roche) and Collagenase Type 1A (Sigma Aldrich; 90 min at 37°C in 95% air/5% CO2). Neurons were dispersed by gentle trituration through silicanized pipettes, and then washed in Dulbecco’s Modified Eagle’s Medium (DMEM) supplemented with 10% fetal bovine serum (FBS) and 1% penicillin-streptomycin. Dispersed cells were plated onto poly-lysine coated coverslips and maintained in DMEM+10% FBS (37°C in 95% air/5% CO2). Measurements were made within 24 h of isolation.
Intracellular calcium measurements were made with the fluorescent Ca^2+ indicator Fura-2 AM (Molecular Probes, Eugene, OR, USA). Manipulations were made at room temperature in a physiological saline bath (in mM: 140 NaCl, 5 KCl, 2 CaCl2, 1 MgCl2, 6 glucose, 10 HEPES with pH adjusted to 7.4 with NaOH). High K^+ bath (HiK) had 55 mM KCl with an equimolar reduction of NaCl to 90 mM. Neurons on coverslips were loaded with 1 μM Fura-2-AM for 1 h followed by a 15 min wash for de-esterification. COS-7 cells on coverslips were loaded with 1 μM Fura-2-AM for 20 min followed by a 10 min was for de-esterification. Coverslips were mounted into a closed chamber and constantly perfused with physiological bath. Fluorescence was collected using a Nikon Eclipse Ti inverted microscope (Nikon Instruments Inc., Melville, NY, USA) with 40× oil immersion objective, and an Andor Zyla sCMOS digital camera (Andor, South Windsor, CT, USA). For COS-7 cell experiments, TRPV1-GFP+ cells were identified by imaging using an EGFP filter cube (Nikon) prior to Fura-2 imaging. Cells containing Fura-2 were alternatively excited with 340 nm and 380 nm light and fluorescence monitored at 510 nm. Data points were collected with MetaFluor software at 6 s time points. Ratios of fluorescence intensity were converted to Ca^2+ concentrations with a standard curve. Peak calcium responses were quantified, analyzed and compared statistically.
For each experiment, data were collected from three to four nodose ganglion cell cultures or plating of the clonal cells (COS-7). When possible, protocols were designed to be within subject and analyzed using repeated measures ANOVA followed by post hoc comparisons against control. Otherwise unpaired T-tests were used to compare between groups. Parameters of dose-response relationships (EC50, slope, maximum) were determined by sigmoid fit of the data. For antagonist studies (ruthenium red (RR), etc.) all neurons received each treatment and were compared using within subject t-tests. Data are expressed as the average ± SEM. Statistical analysis was performed using SigmaStat software (Systat Software Inc., San Jose, CA, USA).

TRPV1 [2] = molecular target: T1, TRPV1; assay: Whole-cell patch-clamp current recordings in dissociated nodose ganglion neurons; type: cell-based
Procedure: as §1
Liquid junction potentials were not corrected.

[3] = test system: vagal afferent neurons taken from TRPV1 KO mice; assay: Fura-2 calcium imaging in vagal afferent neurons from TRPV1 KO mice; type: cell-based, mouse; conditions: any concentration tested, n = 15
Procedure: Male Sprague Dawley rats (120–250 g, Simonsen Laboratories) and male TRPV1 knockout mice (TRPV−/−) (20–30 g) (B6.129X1-Trpv1^tm1Jul/J, Jackson Laboratories) were used under procedures approved by the IACUC at Washington State University. Animals were housed under 12 h light/12 h dark conditions and fed standard pellet chow ad libitum. This study was carried out in accordance with the recommendations of the Guide for the Care and Use of Laboratory Animals, as drafted, updated and published by National Research Council. […]
(§2) Intracellular calcium measurements were made with the fluorescent Ca^2+ indicator Fura-2 AM (Molecular Probes, Eugene, OR, USA). […] Fluorescence was collected using a Nikon Eclipse Ti inverted microscope (Nikon Instruments Inc., Melville, NY, USA) with 40× oil immersion objective, and an Andor Zyla sCMOS digital camera (Andor, South Windsor, CT, USA). […] Cells containing Fura-2 were alternatively excited with 340 nm and 380 nm light and fluorescence monitored at 510 nm. […] Ratios of fluorescence intensity were converted to Ca^2+ concentrations with a standard curve. Peak calcium responses were quantified, analyzed and compared statistically.

[4] = test system: recombinant rat TRPV1 (TRPV1-GFP); assay: Fura-2 calcium imaging in COS-7 cells transfected with TRPV1-GFP; type: cell-based; conditions: COS-7 TRPV1-GFP; AEA n = 453 cells, CAP n = 492 cells
Procedure: (§3) To generate TRPV1-GFP, the full-length rat TRPV1 coding region (NCBI accession number NM_031982.1) without stop codon was PCR amplified from nodose ganglion cDNA using the primers below and inserted into the HindIII and EcoRI sites of pEGFP-N1 (Clontech).
Clonal COS-7 cells (ATCC® Manassas, VA, USA) were plated on glass coverslips at a density of 250,000 cells per well of a 6-well tissue culture plate. HEK293 cells (ATCC® Manassas, VA, USA) were plated on glass coverslips at a density of 50,000 cells per well of a 12-well plate. COS-7 and HEK293 cells were maintained in DMEM (Invitrogen), 10% FCS (Atlanta Biologicals), 25 units/ml penicillin and 25 μg/ml streptomycin (Sigma). […]
as §2

[5] = test system: T2, recombinant rat TRPV1 (TRPV1-GFP); assay: Whole-cell patch-clamp in HEK293 cells transfected with TRPV1-GFP; type: cell-based; conditions: for current reversal potential: current-voltage plots, n = 9 cells
T2 construct: expressed in transfected cells; host or cells: HEK293 cells (ATCC), transient transfection with lipofectamine 2000
Procedure: as §3
Clonal COS-7 cells (ATCC® Manassas, VA, USA) were plated on glass coverslips at a density of 250,000 cells per well of a 6-well tissue culture plate. HEK293 cells (ATCC® Manassas, VA, USA) were plated on glass coverslips at a density of 50,000 cells per well of a 12-well plate. COS-7 and HEK293 cells were maintained in DMEM (Invitrogen), 10% FCS (Atlanta Biologicals), 25 units/ml penicillin and 25 μg/ml streptomycin (Sigma). Approximately 24 h after plating, media was replaced with DMEM, 10% FCS without pen/strep and cells were transiently transfected overnight. COS-7 cells were transfected with 2 μg of TRPV1-GFP and 2.4 μl lipofectamine 2000 (Invitrogen) per well. HEK293 cells were transfected with 1 μg of TRPV1-GFP and 1.2 μl lipofectamine 2000 per well. COS-7 cells were used for calcium imaging and HEK293 cells were used for electrophysiological recordings 1–2 days following transfection.
Whole cell recordings were performed on dissociated nodose ganglion neurons or transfected HEK293 cells using an inverted Olympus IX50 microscope and on NTS neurons contained in horizontal brainstem slices using an upright Nikon FN1 microscope. For HEK293 cell experiments, TRPV1-GFP+ cells were identified visually using 488 nm light illuminations prior to patching. […]
Whole cell currents taken from isolated nodose ganglion cells or transfected HEK 293 cells were normalized to the membrane capacitance to control for variability in cell size. […] For brainstem slice recordings the digitized waveforms of synaptic events were analyzed using an event detection and analysis program (MiniAnalysis, Synaptosoft, Decatur, GA, USA) for all quantal synaptic currents and Clampfit 10 (Molecular Devices) for all ST-stimulated currents. All events >10 pA were counted for frequency values. […]

second-order NTS neurons = assay: Spontaneous glutamate release (sEPSCs) onto second-order NTS neurons in horizontal brainstem slices; type: cell-based, rat
[6] = CAP 1 μM bath application, n = 13

T1 sequence (O35433 whole entry): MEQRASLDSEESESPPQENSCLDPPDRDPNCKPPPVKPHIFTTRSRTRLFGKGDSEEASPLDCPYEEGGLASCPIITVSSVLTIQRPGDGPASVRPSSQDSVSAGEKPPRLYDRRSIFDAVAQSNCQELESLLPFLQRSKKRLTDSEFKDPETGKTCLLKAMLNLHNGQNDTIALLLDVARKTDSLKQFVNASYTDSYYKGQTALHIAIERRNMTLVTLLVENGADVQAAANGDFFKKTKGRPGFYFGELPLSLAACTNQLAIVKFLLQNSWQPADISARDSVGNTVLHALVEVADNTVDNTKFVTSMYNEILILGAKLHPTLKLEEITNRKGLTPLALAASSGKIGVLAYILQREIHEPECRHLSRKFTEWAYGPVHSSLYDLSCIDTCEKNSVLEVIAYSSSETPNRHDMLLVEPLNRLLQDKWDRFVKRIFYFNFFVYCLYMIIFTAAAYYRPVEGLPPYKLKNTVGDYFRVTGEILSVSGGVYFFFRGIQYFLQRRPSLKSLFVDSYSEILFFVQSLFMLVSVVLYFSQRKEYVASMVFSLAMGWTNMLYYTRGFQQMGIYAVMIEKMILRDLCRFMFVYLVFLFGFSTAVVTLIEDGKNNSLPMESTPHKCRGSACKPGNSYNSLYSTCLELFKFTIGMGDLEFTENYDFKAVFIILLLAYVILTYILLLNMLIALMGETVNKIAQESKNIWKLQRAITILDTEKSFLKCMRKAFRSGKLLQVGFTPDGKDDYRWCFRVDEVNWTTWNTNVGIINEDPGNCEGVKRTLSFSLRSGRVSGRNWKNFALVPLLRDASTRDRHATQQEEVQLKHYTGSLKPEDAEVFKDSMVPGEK

CCCCC/C=C\C/C=C\C/C=C\C/C=C\CCCC(=O)NCCO [AEA, anandamide]
EC50 (TRPV1 [1]; cultured vagal afferent neurons, Fura-2, sigmoid fit, AM251 present for AEA, read-out: EC50 for Calcium (peak cytosolic calcium)): 1.95 ± 0.36 µM | calcium response to 1st AEA exposure (time matched control) (TRPV1 [1]; repeated AEA, 1st response, N = 12): 113 ± 26 | calcium response to 2nd AEA exposure (time matched control) (TRPV1 [1]; repeated AEA, 2nd response, N = 12, P = 0.002 vs 1st): 43 ± 13 | EC50 (TRPV1 [2]): 9.8 ± 1.07 µM | effect of addition of extracellular bath calcium on initial inward current (TRPV1 [2]; AEA applied in calcium free bath, then calcium containing bath, n = 8): significantly reduced | inward current following removal of bath calcium vs standard bath (TRPV1 [2]; saturating AEA 30 μM, bath calcium 2 mM vs calcium free, n = 6): significantly larger | cytosolic calcium increase in TRPV1 KO neurons [3]: failed to produce a calcium increase | peak calcium response, smaller compared to CAP [4]: ~ 14% | current reversal potential [5]: 5 mV | current change, smaller than CAP ([5]; physiological bath, Vm = −60 mV): ~ 52% | change of any sEPSC parameter (frequency, amplitude, decay-time constant) (second-order NTS neurons; AEA 30 μM, n = 16): failed to produce a significant change

COc1cc(CNC(=O)CCCC/C=C/C(C)C)ccc1O [CAP, capsaicin]
effect of removal of bath calcium on average amplitude of induced current (TRPV1 [2]; saturating CAP 10 μM, bath calcium 2 mM vs calcium free, n = 8): did not change | current reversal potential [5]: 5 mV | change of sEPSC event amplitude or decay kinetics (second-order NTS neurons; [6]): no significant changes | change of spontaneous glutamate release (sEPSC frequency) (second-order NTS neurons; [6]): dramatic increase

N.N.N.N.N.N.N.N.N.N.N.N.N.N.[Cl-].[Cl-].[Cl-].[Cl-].[Cl-].[Cl-].[O-2].[O-2].[Ru+3].[Ru+3].[Ru+4] [RR, ruthenium red]
effect on AEA-induced increase in cytosolic calcium (TRPV1 [1]; RR 1 μM pretreatment): eliminated | effect on CAP-induced increase in cytosolic calcium (TRPV1 [1]; RR 1 μM pretreatment): eliminated

COc1cccc(NC(=O)/C=C/c2ccc(Cl)cc2)c1 [SB366791]
effect on AEA-induced increase in cytosolic calcium (TRPV1 [1]; SB366791 10 μM pretreatment): eliminated | effect on CAP-induced increase in cytosolic calcium (TRPV1 [1]; SB366791 10 μM pretreatment): eliminated
